Reference: ChEMBL document CHEMBL1201862, “PubChem BioAssay data set” (2004)
Calls of active or inactive are those of the source.

Assays:
[1] = microbe, parasite or virus in culture; assay type: functional; details: Mycobacterium tuberculosis
[2] = molecular target: Large T antigen (Simian virus 40, UniProt P03070); assay type: functional, Betapolyomavirus macacae;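 further: Confirmatory-stage PubChem screen for compounds that inhibit SV40 T antigen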
[3] = molecular target: T1, Heat shock factor protein 1 (Mus musculus, UniProt P38532); experiment: inhibition of MG132-induced HSE-luciferase signal, confirmation, cell-based, NIH3T3, luminescence, dose retest (AID 2382); assay type: functional;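 further: NIH3T3 fibroblasts with HSF1-driven luciferase reporter stressed by proteasome inhibitor MG132; luminescence from HSF1-driven luciferase expression after 8 hours of MG132 stress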
T1 sequence (P38532 whole entry): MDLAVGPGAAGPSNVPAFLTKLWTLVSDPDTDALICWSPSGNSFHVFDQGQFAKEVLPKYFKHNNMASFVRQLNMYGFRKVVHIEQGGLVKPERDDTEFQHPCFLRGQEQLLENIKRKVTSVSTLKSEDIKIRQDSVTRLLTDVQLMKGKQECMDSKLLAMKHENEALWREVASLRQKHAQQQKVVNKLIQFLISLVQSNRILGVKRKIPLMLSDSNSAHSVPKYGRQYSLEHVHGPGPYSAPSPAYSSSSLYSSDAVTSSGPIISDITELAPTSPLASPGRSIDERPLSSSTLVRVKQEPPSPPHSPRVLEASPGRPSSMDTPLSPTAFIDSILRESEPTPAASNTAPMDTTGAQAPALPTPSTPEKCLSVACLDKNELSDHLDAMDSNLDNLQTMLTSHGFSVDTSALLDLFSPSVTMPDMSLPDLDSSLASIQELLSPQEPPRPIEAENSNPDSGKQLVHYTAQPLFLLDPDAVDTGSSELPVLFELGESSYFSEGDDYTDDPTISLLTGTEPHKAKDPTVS

[4] = molecular target: Genome polyprotein (dengue virus type 2, UniProt P29990); experiment: Dengue-2 NS5 methyltransferase inhibitors, primary screen, biochemical, confirmation dose response (AID 588689); assay type: functional
[5] = molecular target: Nonstructural protein 1 (Influenza A virus, UniProt Q194T2); assay type: functional, Influenza A virus (A/California/07/2009(H1N1))
[6] = molecular target: Prothrombin (Homo sapiens, UniProt P00734); experiment: Thrombin 1536 HTS Dose Response Confirmation. [Related pubchem assays: 1046 (Thrombin 1536 HTS; hits were confirmed in this assay)]; assay type: functional
[7] = cytotoxicity in HEK-293T cells, dose response, cytotoxicity control for BCR NF-kB inhibitor project, luminescence, B-cell screen hits (AID 489021); assay type: functional, cell-based;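 further: HEK-293T cells carrying an NF-kB luciferase reporter; cells exposed to compound for about 14 hours before viability readout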
[8] = molecular target: DNA dC->dU-editing enzyme APOBEC-3G (Homo sapiens, UniProt Q9HC16); experiment: Dose Response confirmation of small molecule APOBEC3G DNA Deaminase Inhibitors via a fluorescence-based single-stranded DNA deaminase assay. [Related pubchem assays (depositor defined):AID493012, AID493028]; assay type: functional
[9] = cytotoxicity toward NIH3T3 fibroblasts, dose response, counter-screen, cell-based, ATP luminescence, mouse fibroblasts (AID 2010); assay type: functional;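 further: cells exposed to compound for about 90 hours before reading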
[10] = inhibitors of intracellular T. cruzi replication, confirmation, NIH3T3 host cells, beta-gal luminescence (AID 2044); assay type: functional, cell-based;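 further: intracellular parasites grown in NIH/3T3 mouse fibroblasts as host cells; luminescent beta-galactosidase reporter signal from transgenic T. cruzi replicating inside host cells; inhibitors lower the luminescence signal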
[11] = molecular target: T2, Replicative DNA helicase DnaB (Mycobacterium tuberculosis, UniProt P9WMR3); experiment: DnaB intein splicing inhibitors, dose response, biochemical, cell-free fluorescence (AID 449749); assay type: functional
T2 sequence (P9WMR3 whole entry): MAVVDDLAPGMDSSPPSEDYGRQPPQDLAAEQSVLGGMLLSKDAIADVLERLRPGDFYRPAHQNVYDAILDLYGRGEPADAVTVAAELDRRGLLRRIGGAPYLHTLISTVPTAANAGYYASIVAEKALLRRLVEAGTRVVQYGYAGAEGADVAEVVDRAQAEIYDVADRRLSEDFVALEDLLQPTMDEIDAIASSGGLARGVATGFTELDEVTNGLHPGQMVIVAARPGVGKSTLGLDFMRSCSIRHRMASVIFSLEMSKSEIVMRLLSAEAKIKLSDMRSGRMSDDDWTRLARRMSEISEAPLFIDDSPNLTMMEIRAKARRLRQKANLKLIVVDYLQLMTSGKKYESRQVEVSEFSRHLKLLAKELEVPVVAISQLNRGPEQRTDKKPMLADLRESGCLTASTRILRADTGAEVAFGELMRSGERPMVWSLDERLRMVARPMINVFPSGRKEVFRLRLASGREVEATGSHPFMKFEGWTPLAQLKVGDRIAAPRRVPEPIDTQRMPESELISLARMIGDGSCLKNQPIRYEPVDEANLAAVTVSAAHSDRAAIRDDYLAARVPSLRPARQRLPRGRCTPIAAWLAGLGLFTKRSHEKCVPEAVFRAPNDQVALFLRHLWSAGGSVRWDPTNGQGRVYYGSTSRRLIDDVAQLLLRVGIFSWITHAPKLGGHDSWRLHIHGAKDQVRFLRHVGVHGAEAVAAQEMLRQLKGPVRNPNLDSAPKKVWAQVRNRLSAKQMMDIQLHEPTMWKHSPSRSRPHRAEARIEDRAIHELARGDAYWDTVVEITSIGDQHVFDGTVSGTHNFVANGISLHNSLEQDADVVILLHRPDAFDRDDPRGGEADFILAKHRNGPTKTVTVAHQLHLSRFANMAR

[12] = molecular target: T3, Protein RecA (Mycobacterium tuberculosis, UniProt P9WHJ3); experiment: Fluorescence Cell-Free Homogeneous Dose Retest to Identify Inhibitors of RecA-Intein Splicing Activity. [Related pubchem assays (depositor defined):AID2097, AID2223, AID489010, AID492950]; assay type: functional
T3 sequence (P9WHJ3 whole entry): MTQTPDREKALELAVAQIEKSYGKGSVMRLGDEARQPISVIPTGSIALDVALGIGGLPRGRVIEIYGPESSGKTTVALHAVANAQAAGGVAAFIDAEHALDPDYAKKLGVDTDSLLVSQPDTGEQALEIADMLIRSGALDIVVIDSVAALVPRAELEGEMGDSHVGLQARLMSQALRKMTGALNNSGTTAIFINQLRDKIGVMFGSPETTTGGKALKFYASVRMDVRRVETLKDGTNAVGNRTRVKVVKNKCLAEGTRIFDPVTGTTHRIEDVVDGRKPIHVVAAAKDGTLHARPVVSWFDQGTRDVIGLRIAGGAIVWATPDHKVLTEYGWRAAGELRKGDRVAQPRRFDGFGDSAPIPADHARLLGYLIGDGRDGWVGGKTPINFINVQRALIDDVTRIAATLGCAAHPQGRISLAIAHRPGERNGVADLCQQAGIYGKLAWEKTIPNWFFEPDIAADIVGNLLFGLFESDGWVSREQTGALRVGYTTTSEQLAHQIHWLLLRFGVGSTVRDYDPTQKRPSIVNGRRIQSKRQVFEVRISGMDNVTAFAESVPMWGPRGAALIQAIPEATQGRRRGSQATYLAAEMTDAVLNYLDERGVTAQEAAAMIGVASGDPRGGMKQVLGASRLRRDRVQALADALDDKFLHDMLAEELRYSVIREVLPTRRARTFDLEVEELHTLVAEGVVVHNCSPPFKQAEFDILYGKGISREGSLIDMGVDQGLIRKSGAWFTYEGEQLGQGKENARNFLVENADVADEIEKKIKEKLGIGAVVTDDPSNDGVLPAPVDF

[13] = cytotoxicity toward DRD oncogenic fibroblasts, dose response, cell-based, non-viral oncogenic, luminescence (AID 1934); assay type: functional; details: Homo sapiens
[14] = tested on: BJ; experiment: cells; assay type: functional, cell-based; details: Homo sapiens
[15] = cytotoxicity in HEK-293T cells, dose response, cytotoxicity control for TCR NF-kB inhibitor project, luminescence, T-cell screen hits (AID 489026); assay type: functional, cell-based;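 further: cells exposed to compound about 14 hours before the viability readout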
[16] = tested on: BJ; experiment: cytotoxicity toward BJ-TERT fibroblasts, dose response, cell-based, RAS-independent, luminescence (AID 1933); assay type: functional; details: Homo sapiens
[17] = Luminescence Cell-Based Dose Retest to Confirm Inhibitors of Cancer Stem Cells. [Related pubchem assays (depositor defined):AID2717, AID2721]; assay type: functional; details: Homo sapiens
[18] = tested on: BJ; experiment: cytotoxicity toward BJ-TERT-LT-ST fibroblasts, dose response, cell-based, RAS-independent, luminescence (AID 1935); assay type: functional; details: Homo sapiens;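 further: BJ fibroblasts immortalized with TERT plus LT and ST oncogenes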
[19] = Luminescence Cell-Based Dose Response HTS to Identify Activators of Luciferase Translation or Activity in H4 […] Cells. [Related pubchem assays: 1829 (Project Summary), 1814 (Primary HTS)]; assay type: functional
[20] = Luminescence Cell-Based Dose Confirmation HTS to Identify Activators of 5'UTR Stem-Loop Driven Alpha-Synuclein mRNA Translation in H4 Neuroglioblastoma Cells. [Related pubchem assays: 1829 (Project Summary), 1814 (Primary HTS)]; assay type: functional
[21] = tested on: H4; experiment: Luminescence Cell-Based Dose Response HTS to Identify Activators of 5'UTR Stem-Loop Driven Prion Protein mRNA Translation in H4 Neuroglioblastoma Cells. [Related pubchem assays: 1829 (Project Summary), 1814 (Primary HTS)]; assay type: functional; details: Homo sapiens
[22] = molecular target: T4, Carboxy-terminal domain RNA polymerase II polypeptide A small phosphatase 1 (Homo sapiens, UniProt Q9GZU7); experiment: inhibitors of CTDSP1, concentration-response testing, biochemical assay, absorbance-based, actives from ultra-high-throughput screening (AID 540297); assay type: functional
T4 sequence (Q9GZU7 whole entry): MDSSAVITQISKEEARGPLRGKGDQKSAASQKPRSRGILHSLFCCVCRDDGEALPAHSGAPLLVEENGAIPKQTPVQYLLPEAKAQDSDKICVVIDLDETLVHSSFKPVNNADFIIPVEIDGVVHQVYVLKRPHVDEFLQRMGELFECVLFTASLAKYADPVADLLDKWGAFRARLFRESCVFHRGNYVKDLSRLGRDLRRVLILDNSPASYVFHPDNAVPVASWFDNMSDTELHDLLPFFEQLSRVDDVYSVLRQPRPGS

[23] = molecular target: T5, Caspase-6 (Homo sapiens, UniProt P55212); experiment: human caspase-6 inhibitors, dose response, biochemical, VEID-R110 fluorescence, cherry-pick (AID 720632)
T5 sequence (P55212 whole entry): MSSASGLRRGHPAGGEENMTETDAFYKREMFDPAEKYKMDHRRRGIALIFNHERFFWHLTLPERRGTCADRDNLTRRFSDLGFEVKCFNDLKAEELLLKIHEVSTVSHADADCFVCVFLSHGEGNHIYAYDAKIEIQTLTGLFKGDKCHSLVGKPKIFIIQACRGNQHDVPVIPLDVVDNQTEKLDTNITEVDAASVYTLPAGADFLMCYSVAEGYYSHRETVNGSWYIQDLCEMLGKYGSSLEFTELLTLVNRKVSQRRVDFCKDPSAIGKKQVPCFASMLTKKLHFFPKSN

[24] = growth suppression of PTEN-null colon cells, dose response, cell-based, HCT116 PTEN knockout (AID 1047); assay type: functional;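 further: HCT116 colon tumor cells with PTEN knocked out; cells exposed to compound for 60 hours before readout; potency for loss of cell viability measured by luminescence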
[25] = growth suppression of beta-catenin-knockout colon cells, dose response, cell-based, HCT116, human colon tumor (AID 1045); assay type: functional;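 further: HCT116 colon tumor cells with beta catenin knocked out; cells exposed to compound for 60 hours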

Sequence of Large T antigen (P03070 whole entry): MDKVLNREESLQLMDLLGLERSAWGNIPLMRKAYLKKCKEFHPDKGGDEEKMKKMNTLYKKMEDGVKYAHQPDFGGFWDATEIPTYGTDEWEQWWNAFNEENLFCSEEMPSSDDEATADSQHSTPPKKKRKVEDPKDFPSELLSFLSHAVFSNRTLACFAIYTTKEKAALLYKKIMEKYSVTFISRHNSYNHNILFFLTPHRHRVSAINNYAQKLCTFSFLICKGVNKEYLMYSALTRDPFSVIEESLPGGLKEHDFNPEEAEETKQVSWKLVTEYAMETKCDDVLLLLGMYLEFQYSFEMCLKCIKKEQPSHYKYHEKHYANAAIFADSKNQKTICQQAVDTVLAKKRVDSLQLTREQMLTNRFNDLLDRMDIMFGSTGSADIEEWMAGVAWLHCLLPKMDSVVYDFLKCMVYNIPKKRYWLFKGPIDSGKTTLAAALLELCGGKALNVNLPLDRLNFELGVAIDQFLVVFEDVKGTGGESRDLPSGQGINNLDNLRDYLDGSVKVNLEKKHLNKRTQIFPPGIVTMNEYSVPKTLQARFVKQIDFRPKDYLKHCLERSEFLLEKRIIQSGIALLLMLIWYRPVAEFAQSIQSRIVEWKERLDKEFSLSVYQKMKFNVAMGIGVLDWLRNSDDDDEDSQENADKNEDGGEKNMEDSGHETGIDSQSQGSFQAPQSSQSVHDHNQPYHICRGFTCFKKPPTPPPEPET
Sequence of Nonstructural protein 1 (Q194T2 whole entry): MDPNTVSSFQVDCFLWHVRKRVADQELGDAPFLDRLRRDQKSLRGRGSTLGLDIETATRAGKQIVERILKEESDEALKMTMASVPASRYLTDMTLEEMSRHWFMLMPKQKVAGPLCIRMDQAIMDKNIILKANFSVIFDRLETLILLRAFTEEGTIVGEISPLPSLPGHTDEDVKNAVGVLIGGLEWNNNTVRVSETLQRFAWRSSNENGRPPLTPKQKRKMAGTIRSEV
Sequence of DNA dC->dU-editing enzyme APOBEC-3G (Q9HC16 whole entry): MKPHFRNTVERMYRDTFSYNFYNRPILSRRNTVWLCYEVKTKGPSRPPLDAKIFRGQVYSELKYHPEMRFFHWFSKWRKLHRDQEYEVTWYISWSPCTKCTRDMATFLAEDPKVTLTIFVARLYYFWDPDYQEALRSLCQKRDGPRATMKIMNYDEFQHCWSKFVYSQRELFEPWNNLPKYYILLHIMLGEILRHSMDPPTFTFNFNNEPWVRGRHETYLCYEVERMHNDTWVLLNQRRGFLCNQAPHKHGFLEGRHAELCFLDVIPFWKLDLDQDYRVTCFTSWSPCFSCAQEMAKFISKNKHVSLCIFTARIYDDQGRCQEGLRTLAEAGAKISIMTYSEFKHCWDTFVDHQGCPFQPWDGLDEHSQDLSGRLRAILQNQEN
Sequence of Genome polyprotein (P29990 2492-3391 limits assumed): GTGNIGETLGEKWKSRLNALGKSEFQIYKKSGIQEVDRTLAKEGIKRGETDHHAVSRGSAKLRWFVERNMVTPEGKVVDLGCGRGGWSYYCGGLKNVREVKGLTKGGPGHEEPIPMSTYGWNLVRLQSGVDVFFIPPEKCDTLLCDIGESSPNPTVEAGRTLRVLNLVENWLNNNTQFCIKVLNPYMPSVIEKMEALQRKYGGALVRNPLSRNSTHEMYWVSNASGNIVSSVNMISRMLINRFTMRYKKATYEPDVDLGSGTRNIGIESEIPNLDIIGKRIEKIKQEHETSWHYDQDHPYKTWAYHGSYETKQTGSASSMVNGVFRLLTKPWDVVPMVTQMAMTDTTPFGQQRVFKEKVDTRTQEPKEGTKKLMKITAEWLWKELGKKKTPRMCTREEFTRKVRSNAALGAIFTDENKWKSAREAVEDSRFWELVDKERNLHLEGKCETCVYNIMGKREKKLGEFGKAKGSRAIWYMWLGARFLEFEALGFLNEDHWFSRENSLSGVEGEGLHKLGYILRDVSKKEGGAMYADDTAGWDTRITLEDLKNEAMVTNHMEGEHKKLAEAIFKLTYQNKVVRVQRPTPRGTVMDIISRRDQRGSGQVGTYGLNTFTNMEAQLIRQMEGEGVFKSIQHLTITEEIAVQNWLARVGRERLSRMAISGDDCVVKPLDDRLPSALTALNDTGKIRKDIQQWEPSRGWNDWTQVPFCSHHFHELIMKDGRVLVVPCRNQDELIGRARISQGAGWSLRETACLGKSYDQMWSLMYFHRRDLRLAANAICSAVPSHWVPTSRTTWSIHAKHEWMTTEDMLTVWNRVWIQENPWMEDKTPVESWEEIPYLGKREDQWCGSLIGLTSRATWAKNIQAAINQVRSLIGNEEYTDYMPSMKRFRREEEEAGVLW

CCN(CC)Cc1nc(O)c2c(n1)-c1ccccc1CC2(CC)CC
CC50 [1]: > 40 µM (active)

COc1ccc(CNc2ccc(N3CCOCC3)cc2)cc1
IC50 [2]: 16.8 µM (active)

CC1=C(C#N)c2nc(N)c(C#N)c(C)c2/C1=C\c1ccc(OCC(=O)O)c(Cl)c1
EC50 [3]: > 195 µM (not active)
IC50 [2]: 44.3 µM (active)
IC50 [4]: 35.9 µM (active)

Nn1c(SC/C=C/c2ccccc2)nnc1-c1ccccn1
IC50 [5]: 24 µM (active)

Cc1ccc(N2C(S)=NC3c4ccccc4OC2(C)C3C(=O)N(C)C)cc1 (stereo unspecified)
IC50 [6]: > 50 µM (inconclusive)

COc1ccc(-c2ccc(F)cc2)cc1[C@H]1[C@H]2C=CC[C@@H](C)[C@@H]2C(=O)N1Cc1ccccc1
IC50 [7]: > 80 µM (inactive)

CCCCC(=O)Nc1sc(C(=O)N(CC)CC)c(C)c1C(=O)OC
IC50 [8]: 49.6 µM (active)
EC50 [3]: > 195 µM (not active)

CCCc1nc(NC(C)=O)c(C#N)c(-c2ccco2)c1CC
IC50 [6]: > 50 µM (not active)

CN1CCN(C(=O)c2ccccc2N(Cc2ccccc2)S(=O)(=O)c2ccccc2)CC1
IC50 [7]: > 80 µM (inactive)

CCC1C(c2ccccc2)N(C)C(c2ccccc2)CC1(O)c1ccccc1 (stereo unspecified)
EC50 [9]: > 60 µM (not active)
CC50 [1]: > 40 µM (active)
EC50 [10]: 2.31 µM (active)

CC1=NN(Cc2ccccc2)C(=O)/C1=C/c1ccc(N(C)C)cc1
AC50 [11]: 4.15 µM (active)
EC50 [12]: 1.22 µM (active)
IC50 [5]: 50.9 µM (active)

O=C(Nc1ccc(O)cc1)/C(=C\c1ccncc1)NC(=O)c1ccccc1
IC50 [2]: 27.7 µM (active)

O=C(CCCN1C(=O)/C(=C/c2ccccc2Cl)SC1=S)Nc1cccnc1
IC50 [7]: > 80 µM (inactive)

C=C(C)COc1ccc(-c2n[nH]cc2-c2ccc(OC)c(OC)c2)c(O)c1
EC50 [13]: 2.4 µM (active)
EC50 [14]: 1.84 µM (active)
IC50 [15]: 34.3 µM (inactive)
EC50 [16]: 8.31 µM (active)
AC50 [17]: 0.882 µM (active)
EC50 [18]: 2.48 µM (active)

C/C(=C/C(=O)N1CCN(C)CC1)C(=O)O
EC50 [3]: 36.8 µM (active)
IC50 [6]: > 50 µM (not active)

COc1ccc(OCC(=O)N2CCN(Cc3ccc(SC)cc3)CC2)cc1
IC50 [6]: > 50 µM (not active)

COc1ccc(NCc2nc3ccccc3n2CCOc2ccccc2)cc1
EC50 [19]: 53.4 µM (active)
EC50 [9]: > 60 µM (not active)
EC50 [20]: 7.26 µM (active)
CC50 [1]: > 40 µM (active)
EC50 [10]: 2.36 µM (active)
EC50 [21]: 79.8 µM (active)

CCN(CC)S(=O)(=O)c1ccc2c(c1)c(=O)c(C(=O)NCc1cccs1)cn2C
IC50 [6]: 0.0331 µM (active)

Cc1ccc(S(=O)(=O)N2CCN(C(=O)c3ccc(N4CCCC4)c([N+](=O)[O-])c3)CC2)cc1
IC50 [5]: > 100 µM (active)

O=C(NNC(=O)c1ccccc1Br)c1ccc2nc[nH]c2c1
IC50 [22]: 7.34 µM (active)
AC50 [23]: 23.6 µM (active)

CCOC(=O)CSC1=C(C#N)C(c2ccc(C)s2)CC(=O)N1 (stereo unspecified)
IC50 [15]: > 80 µM (inactive)

CSCCC(NC(=O)c1cccc(C)c1)C(=O)OCC(=O)NC(=O)c1cccn1C (stereo unspecified)
IC50 [6]: 39 µM (active)

COc1cc(C(=O)Nc2cc(C)c(OCC(=O)N3CCOCC3)c(C)c2)cc(OC)c1OC
IC50 [7]: > 80 µM (inactive)

COc1ccc(/C=N\NC(=O)c2ccccc2F)cc1COc1ccc(F)cc1F
IC50 [15]: > 80 µM (inactive)

CCOc1cc(C(=O)N/N=C/C(Br)=C/c2ccccc2)cc(OCC)c1OCC
EC50 [24]: 1.39 µM (active)
EC50 [25]: 1.34 µM (active)
IC50 [15]: > 80 µM (inactive)
